Measured values published in PubChem BioAssay (NCI).
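Assay format: 96-well plates, 48-hour exposure. GI50: concentration for 50% inhibition of growth. At the TGI there is no net growth.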

Columns and labels:
Assay in all cases: NCI tumour cell line growth inhibition, 48 h
[1] = tested on: MCF7 breast
[2] = tested on: RXF 393 renal
[3] = tested on: HOP-62 NSCLC
[4] = tested on: BT-549 breast
[5] = tested on: UO-31 renal
[6] = tested on: KM12 colon
[7] = tested on: 786-0 renal
[8] = tested on: K-562 leukemia
[9] = tested on: HCT-15 colon
[10] = tested on: EKVX NSCLC
[11] = tested on: TK-10 renal
[12] = tested on: UACC-257 melanoma
[13] = tested on: HT29 colon
[14] = tested on: M14 melanoma
[15] = tested on: OVCAR-5 ovarian
[16] = tested on: LOX IMVI melanoma
[17] = tested on: SK-MEL-5 melanoma
[18] = tested on: NCI-H460 lung
[19] = tested on: HCT-116 colon
[20] = tested on: SNB-75 CNS
[21] = tested on: SR leukemia
[22] = tested on: A498 renal
[23] = tested on: SK-OV-3 ovarian
[24] = tested on: UACC-62 melanoma
[25] = tested on: NCI-H226 lung
[26] = tested on: MDA-MB-435
[27] = tested on: SF-295 CNS
[28] = tested on: HOP-92 NSCLC
[29] = tested on: SF-268 CNS
[30] = tested on: HS 578T breast
[31] = tested on: NCI/ADR-RES ovarian
[32] = tested on: U251 CNS
[33] = tested on: PC-3 prostate
[34] = tested on: SK-MEL-2 melanoma
[35] = tested on: A549 NSCLC
[36] = tested on: SK-MEL-28 melanoma
[37] = tested on: MALME-3M melanoma
[38] = tested on: SF-539 CNS
[39] = tested on: ACHN renal
[40] = tested on: T-47D breast
[41] = tested on: HCC-2998 colon
[42] = tested on: CCRF-CEM leukemia
[43] = tested on: OVCAR-8 ovarian
[44] = tested on: CAKI-1 renal
[45] = tested on: DU-145 prostate
[46] = tested on: OVCAR-3 ovarian
[47] = tested on: MOLT-4 leukemia
[48] = tested on: MDA-MB-231 breast
[49] = tested on: IGROV1 ovarian
[50] = tested on: SN12C renal
[51] = tested on: HL-60(TB) leukemia
[52] = tested on: NCI-H522 lung
[53] = tested on: NCI-H23 lung
[54] = tested on: RPMI-8226 leukemia
[55] = tested on: COLO 205 colon
[56] = tested on: OVCAR-4 ovarian
[57] = tested on: SW-620 colon
[58] = tested on: SNB-19 CNS

Work on `CCN(Cc1cccc(C)c1)c1ccc(CO)c(Cl)c1` yielded a GI50 [1] of 0.366 µM, a TGI [1] of 11.1 µM and a GI50 [2] of 6.52 µM. The TGI [2] was 21.9 µM, the GI50 [3] was 2.55 µM and the TGI [3] was 22 µM. The GI50 [4] was 13.4 µM, the TGI [4] was 27.2 µM and the GI50 [5] was 6.47 µM. The TGI [5] was 20.6 µM, the GI50 [6] was 13.9 µM and the TGI [6] was 27.8 µM. For the same compound, the GI50 [7] was 10.8 µM, the TGI [7] was 23.5 µM and the GI50 [8] was 3.98 µM. The TGI [8] was 44.6 µM, the GI50 [9] was 12.1 µM and the TGI [9] was 33.1 µM. It also gave a GI50 [10] of 14.6 µM, a TGI [10] of 30 µM and a GI50 [11] of 0.113 µM. The TGI [11] was 0.36 µM, the GI50 [12] was 0.188 µM and the TGI [12] was 0.525 µM. For the same compound, the GI50 [13] was 4.12 µM, the TGI [13] was 16.2 µM and the GI50 [14] was 14.3 µM. It also gave a TGI [14] of 29.8 µM, a GI50 [15] of 0.245 µM and a TGI [15] of 1.04 µM. It also gave a GI50 [16] of 13.2 µM, a TGI [16] of 26.6 µM and a GI50 [17] of 9.25 µM. For the same compound, the TGI [17] was 22 µM, the GI50 [18] was 0.513 µM and the TGI [18] was 14.5 µM. It also gave a GI50 [19] of 0.203 µM, a TGI [19] of 10.7 µM and a GI50 [20] of 13.1 µM. For the same compound, the TGI [20] was 37.5 µM, the GI50 [21] was 21.6 µM and the TGI [21] was over 62 µM. The GI50 [22] was 0.0362 µM, the TGI [22] was 0.162 µM and the GI50 [23] was 11.7 µM. The TGI [23] was 29.5 µM, the GI50 [24] was 0.158 µM and the TGI [24] was 1.11 µM. For the same compound, the GI50 [25] was 0.121 µM, the TGI [25] was 0.252 µM and the GI50 [26] was 15.7 µM. The TGI [26] was 32.1 µM, the GI50 [27] was 1.51 µM and the TGI [27] was 16.4 µM. The GI50 [28] was 2.16 µM, the TGI [28] was 13.5 µM and the GI50 [29] was 16.2 µM. The TGI [29] was 31.1 µM, the GI50 [30] was 15.2 µM and the TGI [30] was 37.7 µM. The GI50 [31] was 11.3 µM, the TGI [31] was 24.5 µM and the GI50 [32] was 2.27 µM. It also gave a TGI [32] of 16.8 µM, a GI50 [33] of 12.6 µM and a TGI [33] of 26.1 µM. It also gave a GI50 [34] of 5.77 µM, a TGI [34] of 21.8 µM and a GI50 [35] of 4.77 µM. The TGI [35] was 20.7 µM, the GI50 [36] was 15.1 µM and the TGI [36] was 39.5 µM. For the same compound, the GI50 [37] was 15.7 µM, the TGI [37] was 33.4 µM and the GI50 [38] was 17.3 µM. For the same compound, the TGI [38] was 32.4 µM, the GI50 [39] was 14.6 µM and the TGI [39] was 29.1 µM. For the same compound, the GI50 [40] was 0.294 µM, the TGI [40] was 1.81 µM and the GI50 [41] was 12.1 µM. The TGI [41] was 25.4 µM, the GI50 [42] was 15.6 µM and the TGI [42] was 39.8 µM. It also gave a GI50 [43] of 12.3 µM, a TGI [43] of 28.3 µM and a GI50 [44] of 1.31 µM. It also gave a TGI [44] of 14.7 µM, a GI50 [45] of 14.8 µM and a TGI [45] of 28.9 µM. It also gave a GI50 [46] of 1.5 µM, a TGI [46] of 8.77 µM and a GI50 [47] of 18.5 µM. It also gave a TGI [47] of over 64.3 µM, a GI50 [48] of 14.1 µM and a TGI [48] of 30.8 µM. The GI50 [49] was 0.152 µM, the TGI [49] was 1.18 µM and the GI50 [50] was 12.1 µM. It also gave a TGI [50] of 26.3 µM, a GI50 [51] of 14.1 µM and a TGI [51] of 41.1 µM. The GI50 [52] was 13.2 µM, the TGI [52] was 27.5 µM and the GI50 [53] was 10.1 µM. For the same compound, the TGI [53] was 25.5 µM, the GI50 [54] was 6.2 µM and the TGI [54] was 31.2 µM. It also gave a GI50 [55] of 2.53 µM, a TGI [55] of 6.92 µM and a GI50 [56] of 0.618 µM. It also gave a TGI [56] of 8.22 µM, a GI50 [57] of 2.33 µM and a TGI [57] of 18 µM. For the same compound, the GI50 [58] was 15.8 µM and the TGI [58] was 41 µM.
